{"source": "patent US12240811B2", "about": "“N-heterocyclic five-membered ring-containing capsid protein assembly inhibitor, pharmaceutical composition and uses thereof” (CHIA TAI TIANQING PHARMACEUTICAL GROUP CO., LTD., priority 2019, dated 2025)", "key": {"HBV DNA in serum": {"system": "HBV DNA in serum", "experiment": "pAAV/HBV mouse model", "type": "in vivo, C57BL/6 mice", "settings": "3 mpk intragastric once daily", "protocol": "6-8 week old male C57BL/6 mice (Shanghai Lingchang Biotechnology Co., Ltd.) were used, and each mouse was injected with purified recombinant plasmid pAAV/HBV1.2 ([…]) dissolved in PBS equivalent to a volume of about 10% of its body weight through the tail vein within 3-8 s. Blood was collected from the orbits of the mice at 3 days after the plasmid injection to detect serum HBV DNA. The model mice having uniform serum DNA were selected and divided into: a model control group, a vehicle control group, and a test substance group. Mice in each group were continuously administered intragastrically once daily for 10 days at a dose of 3 mg/kg. The mouse serum was taken on day 0, 4, 7, and 10 after the administration, and the mice were sacrificed on day 10 to take liver tissue samples. The HBV DNA copy numbers in serum and liver of the mice were detected by fluorescent quantitative PCR method."}, "[1]": {"experiment": "In vivo pharmacokinetics (PK) study in rats", "set-up": "species or system SD rats", "settings": "for half-life: SD, in vivo; for AUC(0-t): read-out: AUC(0-48 h)"}, "CYP 3A4": {"biological_target": "CYP 3A4 (Homo sapiens (Human), UniProt P08684)", "sequence (P08684 whole entry)": "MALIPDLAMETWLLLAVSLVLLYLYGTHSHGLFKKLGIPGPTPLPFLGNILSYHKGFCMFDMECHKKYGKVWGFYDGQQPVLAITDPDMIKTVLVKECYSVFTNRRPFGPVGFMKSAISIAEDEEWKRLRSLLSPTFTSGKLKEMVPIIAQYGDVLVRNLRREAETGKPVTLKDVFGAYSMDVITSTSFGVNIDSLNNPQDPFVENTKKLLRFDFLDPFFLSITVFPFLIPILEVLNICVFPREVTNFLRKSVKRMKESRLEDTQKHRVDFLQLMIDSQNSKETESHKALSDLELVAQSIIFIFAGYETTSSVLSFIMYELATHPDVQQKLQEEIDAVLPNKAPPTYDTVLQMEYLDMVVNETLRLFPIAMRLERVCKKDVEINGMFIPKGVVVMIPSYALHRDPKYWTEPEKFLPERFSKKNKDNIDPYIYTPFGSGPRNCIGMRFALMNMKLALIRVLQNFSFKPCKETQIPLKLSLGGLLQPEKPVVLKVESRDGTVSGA", "experiment": "CYP450 enzyme inhibition study, CYP 3A4", "type": "in vitro ADME", "settings": "human liver microsomes; read-out: Subtypes IC50 3A4", "protocol": "(§1) 500 μL of a final incubation system contains 50 μL of human liver microsomes (protein concentration: 0.2 mg/mL, Corning), 1 μL of mixed CYP450 specific substrates (CYP1A2, CYP 2B6, CYP 2C9, CYP2C19, CYP 2D6, and CYP 3A4), 398 μL PBS buffer (pH7.4), 1 μL specific positive inhibitor (positive control group) or the test compound (formulated with acetonitrile), and 50 μL NADPH+MgCl2. Duplicate incubation systems of 0.5 mL each were formulated for each CYP450 subtype. A total volume of 450 μL of a uniformly mixed solution of the substrate and the enzyme was formulated in each tube, and the solution and NADPH were pre-incubated at 37° C. for 5 minutes, respectively. Then 50 μL of the mixed solution of NADPH+MgCl2 was added for reaction. 50 μL of the reaction solution was taken out at 30 minutes, and the reaction was terminated with 300 μL of ice acetonitrile containing an internal standard. In addition, two control groups of 500 μL each without NADPH were prepared in parallel as a negative control group.\n(§2) Sample pre-treatment: To 50 μL of the incubated sample was added 300 μL of ice acetonitrile containing an internal standard, and then precipitated. After vortexing for 5 minutes, the sample was centrifugated (12000 rpm, 4° C.) for 10 minutes. 75 μL of the supernatant was pipetted, and 75 μL of ultrapure water was added thereto for dilution and mixed uniformly. […]"}, "CYP2C19": {"biological_target": "CYP2C19 (Homo sapiens (Human), UniProt P33261)", "sequence (P33261 whole entry)": "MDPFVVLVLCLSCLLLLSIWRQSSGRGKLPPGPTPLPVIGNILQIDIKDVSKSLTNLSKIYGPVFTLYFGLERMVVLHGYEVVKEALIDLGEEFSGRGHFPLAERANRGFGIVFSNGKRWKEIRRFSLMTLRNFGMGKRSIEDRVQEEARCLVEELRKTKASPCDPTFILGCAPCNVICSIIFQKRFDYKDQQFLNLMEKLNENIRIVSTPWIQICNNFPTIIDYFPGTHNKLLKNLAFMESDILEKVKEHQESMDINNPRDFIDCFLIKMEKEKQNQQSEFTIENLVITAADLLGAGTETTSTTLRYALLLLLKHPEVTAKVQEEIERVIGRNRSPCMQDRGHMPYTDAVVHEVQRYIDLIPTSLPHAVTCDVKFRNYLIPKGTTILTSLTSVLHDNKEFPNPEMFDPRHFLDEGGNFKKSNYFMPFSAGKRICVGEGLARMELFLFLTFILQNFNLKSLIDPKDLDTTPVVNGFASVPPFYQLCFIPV", "experiment": "CYP450 enzyme inhibition study, CYP2C19", "type": "in vitro ADME", "protocol": "as §1, §2"}, "[2]": {"system": "HBV DNA in HepG2.2.15 cells", "experiment": "In vitro cell HBV DNA inhibitory activity in HepG2.2.15 cells", "type": "cell-based", "settings": "Hepatitis B virus, 144 h, 6 days treatment, intracellular capsid HBV DNA by qPCR, read-out: EC50, anti-HBV activity in HepG2.2.15 cells", "protocol": "A bottle of HepG2.2.15 (Wuhan Institute of Virology) or HepAD38 cells in good exponential growth state was taken, washed once by adding 5 mL PBS, and then thereto was added 3 mL trypsin. After digesting at room temperature for 5 min, 2 mL trypsin was discarded, and then the sample was placed in a cell culture incubator and digested for 10 min. The cells were taken out and observed under a microscope (whether the cells were individually round and there was no adhesion between the cells). 10 mL complete medium was added to terminate the digestion. After pipetting into a single cell suspension, 10 μL of the cell suspension was taken out for cell counting with a cell counter, and then diluted with a complete medium and adjusted to a cell density of 1*10^5 cells/mL. […]\nCompounds dissolved in DMSO were subjected to two-fold gradient dilution (10 concentrations in total) with complete medium. […] After lysing at room temperature for 10 min, DNA was extracted, and HBV DNA in the intracellular viral capsid was measured by real-time fluorescence quantitative PCR. The inhibition rate was calculated based on the Ct value, and the EC50 value was calculated by the four-parameter method."}, "CYP 2B6": {"biological_target": "CYP 2B6 (Homo sapiens (Human), UniProt P20813)", "sequence (P20813 whole entry)": "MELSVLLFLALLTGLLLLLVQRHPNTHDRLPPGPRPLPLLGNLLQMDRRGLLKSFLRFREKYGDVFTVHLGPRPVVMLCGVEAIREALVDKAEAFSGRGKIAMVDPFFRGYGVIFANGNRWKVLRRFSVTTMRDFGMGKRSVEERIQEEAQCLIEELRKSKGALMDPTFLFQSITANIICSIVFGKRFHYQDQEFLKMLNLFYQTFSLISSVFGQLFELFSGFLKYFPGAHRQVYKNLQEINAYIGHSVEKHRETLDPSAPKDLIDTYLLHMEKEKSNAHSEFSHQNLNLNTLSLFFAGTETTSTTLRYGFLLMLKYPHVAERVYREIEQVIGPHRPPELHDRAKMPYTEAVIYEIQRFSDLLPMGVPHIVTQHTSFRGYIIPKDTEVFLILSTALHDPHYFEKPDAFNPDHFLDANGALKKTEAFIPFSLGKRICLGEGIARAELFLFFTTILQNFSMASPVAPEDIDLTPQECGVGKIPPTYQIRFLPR", "experiment": "CYP450 enzyme inhibition study, CYP 2B6", "type": "in vitro ADME", "settings": "human liver microsomes; read-out: Subtypes IC50 2B6", "protocol": "as §1, §2"}, "[3]": {"experiment": "Stability of liver microsomes in vitro, rat", "type": "in vitro ADME", "protocol": "300 μL of a final incubation system contains 30 μL of liver microsomes (protein concentration: 0.15 mg/mL, Corning), 30 μL NADPH+MgCl2, 3 μL substrate (formulated with acetonitrile), and 237 μL PBS buffer. Duplicate incubation systems of 0.3 mL each were formulated for each species. A total volume of 270 μL of a uniformly mixed solution of the substrate and the enzyme was formulated in each tube, the solution and NADPH were pre-incubated at 37° C. for 5 minutes, respectively. Then 30 μL of the mixed solution of NADPH+MgCl2 was added for reaction. 50 μL of the reaction solution was taken out at 0, 10, 30, and 60 mins, and the reaction was terminated with 300 μL of ice acetonitrile containing an internal standard.\nSample pre-treatment: To 50 μL of the incubated sample was added 300 μL of ice acetonitrile containing diazepam as an internal standard and then precipitated. After vortexing for 5 minutes, the sample was centrifugated (12000 rpm, 4° C.) for 10 minutes. 75 μL of the supernatant was pipetted into a 96-well plate, and then diluted with 75 μL ultrapure water and mixed uniformly. 0.5 μL of the resulting solution was injected and analyzed by LC-MS/MS."}, "[4]": {"settings": "rat, plasma, SD rats, IV 5 mg/kg"}, "[5]": {"settings": "rat, plasma, SD rats, PO 10 mg/kg"}}, "note": "Like-named read-outs stand apart in the source and are kept apart here.", "data": [{"compound": "Cc1[nH]c(C(=O)C(=O)N[C@@H](C)C(F)(F)F)c(C)c1C(=O)Nc1ccc(F)c(C#N)c1", "note": "[Example 1, (S)—N-(3-cyano-4-fluorophenyl)-2,4-dimethyl-5-(2-oxo-2-((1,1,1-trifluoroprop-2-yl)amino)acetyl)-1H-pyrrole-3-carboxamide]", "values": [{"measurement": "Reduction levels (log10) of HBV DNA in serum, Day 4", "setting": "HBV DNA in serum; Day 4", "value": 2.95, "unit": "log10"}, {"measurement": "Reduction levels (log10) of HBV DNA in serum, Day 7", "setting": "HBV DNA in serum; Day 7", "value": 4.13, "unit": "log10"}, {"measurement": "Reduction levels (log10) of HBV DNA in serum, Day 10", "setting": "HBV DNA in serum; Day 10", "value": 2.71, "unit": "log10"}, {"measurement": "F", "setting": "[1]; SD rats, PO 10 mg/kg vs IV 5 mg/kg", "value": 100, "unit": "%"}, {"measurement": "half-life", "setting": "[1]; rat, iv, 5 mg/kg", "value": 52.8, "unit": "h"}, {"measurement": "half-life", "setting": "[1]; rat, po, 10 mg/kg", "value": 45.6, "unit": "h"}, {"measurement": "AUC(0-inf)", "setting": "[1]; [4]", "value": 148, "unit": "µg·h/mL"}, {"measurement": "Cmax", "setting": "[1]; [4]", "value": 3510, "unit": "ng/mL"}, {"measurement": "clearance", "setting": "[1]; [4]", "value": 0.5, "unit": "mL/min/kg"}, {"measurement": "AUC(0-t)", "setting": "[1]; [4]", "value": 127, "unit": "µg·h/mL"}, {"measurement": "Vd", "setting": "[1]; rat, plasma, SD rats, IV 5 mg/kg, read-out: Vz", "value": 2.58, "unit": "L/kg"}, {"measurement": "AUC(0-inf)", "setting": "[1]; [5]", "value": 284, "unit": "µg·h/mL"}, {"measurement": "Cmax", "setting": "[1]; [5]", "value": 4110, "unit": "ng/mL"}, {"measurement": "AUC(0-t)", "setting": "[1]; [5]", "value": 254, "unit": "µg·h/mL"}, {"measurement": "IC50", "setting": "CYP 3A4", "value": "> 200", "unit": "µM"}, {"measurement": "IC50", "setting": "CYP2C19", "value": 20, "unit": "µM"}, {"measurement": "EC50", "setting": "[2]", "value": 0.0174, "unit": "µM"}, {"measurement": "IC50", "setting": "CYP 2B6", "value": "> 200", "unit": "µM"}, {"measurement": "Remaining (%) of rat liver microsomes at 60 min", "setting": "[3]", "value": 99, "unit": "%"}]}]}
